In patent US20160311886A1, “Constructs Binding to Phosphatidylserine and Their Use in Disease Treatment and Imaging” (Board of Regents, The University of Texas System, priority 2005, published 2016):

What was measured:
[1] = tested on: ABAE cells; assay: Induction of PS exposure, 125I-annexin V binding; format: cell-based, bovine; settings: ABAE and bEnd.3 cells, immunohistochemically
Experimental: All reagents were diluted in medium containing 10% serum and incubated with the cells at 37° C. for 24 h.
To study the effect of hypoxia, cells were seeded on 24 well plates and were incubated in a humidified normoxic atmosphere (21% O2, 5% CO2) for 48 h before being transferred to a humidified hypoxic atmosphere (1% O2, 5% CO2, 94% N2) in a sealed chamber (Billups Rothenberg Inc., Del Mar, Ca). Cells were incubated in a hypoxic chamber for 24 h at 37° C. and were then returned to a normoxic environment for 4 h at 37° C. The cells were compared to a parallel culture from an identical passage, seeded on the same day and maintained entirely under normoxic conditions. In some studies, IL-1α (10 ng/ml) and TNFα (20 ng/ml) were added to the medium before transfer to the hypoxic chamber.
After treatment with the reagents described above, treated and control cells were incubated with 7.1 pmoles of ^125I-labeled annexin V (200 μl/well) in the binding buffer. After 2 h incubation at room temperature, cells were washed extensively and dissolved in 0.5 M of NaOH. The entire volume of 0.5 ml was transferred to plastic tubes and counted in a gamma counter. Non-specific binding was determined in the presence of 5 mM EDTA and was subtracted from experimental values. The results were expressed as net pmoles of cell-bound annexin V, normalized per 1×10^6 cells.
Maximal binding of annexin V was determined on cells simultaneously treated with actinomycin D and TNFα (50 ng/ml of each component). As has been previously reported, these agents cause apoptosis and PS exposure in 90-100% of endothelial cells (Lucas et al., 1998). Basal binding of ^125I-annexin V to untreated cells was determined in the presence of medium with 10% serum. The amount of ^125I-annexin V that bound to the untreated cultures was subtracted from that in the treated cultures. Exposure of PS was calculated according to the following formula: cell-bound annexin V (pmoles) under experimental conditions divided by maximal annexin V binding (pmoles), multiplied by 100. Each study was performed in duplicate and was performed at least three times. Mean values were calculated. The SE of the mean values from three separate experiments was less than 5%.

[2] = tested on: bEnd.3 endothelial cells; assay: H2O2 induction of PS, anti-PS staining and Trypan Blue exclusion
[3] = tested on: 3LL, Colo26, MDA-MB-435, B16, Meth A cells; assay: Docetaxel-induced PS exposure on tumor cell lines, FACS; format: cell-based, mouse, human; settings: 10 nM, 24 hrs
Experimental: The in vitro induction of PS exposure by subclinical concentrations of docetaxel was also examined by FACS analysis using a panel of tumor cell lines. Mouse lewis lung carcinoma 3LL, mouse colon carcinoma Colo26 and human breast cancer MDA-MB-435 cells were treated with 10 nM of docetaxel for 24 hrs and examined by FACS. […] Docetaxel incubations for 48 and 72 hrs were also conducted.

[4] = tested on: HUVEC and HMVEC; assay: Docetaxel-induced PS exposure on endothelial cells, FACS; format: cell-based, human
Experimental: The induction of PS exposure on endothelial cells by subclinical concentrations of docetaxel was examined in vitro by FACS analysis. […] […] Docetaxel incubations for 48 and 72 hrs were also conducted.

[5] = tested on: tumor vessels; assay: Docetaxel-induced PS exposure on tumor vessels; format: in vivo, mouse; settings: after docetaxel treatment; 35% before
From the text: In such studies, docetaxel treatment of mice increased the percentage of tumor vessels that expose anionic phospholipids from 35% to 60%. No induction of PS was observed on vessels in normal tissues even after systemic treatment with docetaxel.

[6] = tested on: Pan02 mouse pancreatic adenocarcinoma; assay: 3G4 and gemcitabine, pancreatic cancer; format: in vivo; settings: 3G4 100 μg, gemcitabine 3.5 mg; day 22
Experimental: Pan02 mouse pancreatic adenocarcinoma cells were injected into the pancreas of immunocompetent C57BL/6 mice. Treatment was started on day 5 after tumor cell injection. […] Gemcitabine is a pyrimidine anti-metabolite. The animals were sacrificed at day 22 after tumor cell injection, and the tumor weight determined.

[7] = tested on: ABAE cells with exposed PS; assay: Live-cell binding assay on LPC-treated endothelial cells; format: cell-based, bovine
Experimental: Adult bovine aortic endothelial (ABAE) cells were maintained in DMEM supplemented with 10% FBS and 2 mM L-glutamine. ABAE cells were removed from subconfluent cultures by brief exposure to 0.25% trypsin/0.02% EDTA, and 8-well chamber slides were seeded with 2×10^4 cells/well. Following overnight culture, cells were washed gently with PBS and treated with 200 μM lysophosphatidylcholine (LPC) to induce PS exposure.
PS exposure was determined by immunofluorescence staining. Cells were washed thoroughly in PBS, fixed in 4% paraformaldehyde (w/v), and incubated with a biotin-conjugated anti-mouse secondary antibody. Next, cells were incubated with FITC-conjugated streptavidin (Jackson Immunoresearch) to detect antibody binding. Cells were then permeablized with 0.1% Triton-X100 in PBS and counterstained with Texas Red-conjugated phalloidin (Molecular Probes, Eugene, Oreg.), and 4′, 6-diamidino-2-phenylindole (DAPI; Molecular Probes). Images were captured using a Coolsnap digital camera (Photometrics, Tucson, Ariz.) mounted on a Nikon microscope and processed with MetaVue software (Universal Imaging Corporation, Downingtown, Pa.).
The area of antibody binding was determined using MetaVue image analysis software, which is able to quantify the number of illuminated pixels in an image. Images of FITC fluorescence were used to quantify antibody binding. Corresponding images of DAPI fluorescence were used to normalize the FITC images for the number of cells present in the field. A small FITC/DAPI ratio indicates a small antibody binding area, whereas a large FITC/DAPI ratio indicates a large binding area. The FITC/DAPI ratios were used to determine increases or decreases in antibody binding area relative to a basal amount of antibody binding under the selected conditions. Five images at 200× magnification were used for each analysis. Data are presented as average relative FITC/DAPI ratios with error bars representing the standard deviation.
Cells were then washed, fixed, and stained with fluorescent markers to visualize binding of antibody to the cell surface.

[8] = Binding of ch3G4 and 2aG4 to phospholipid-coated ELISA plates; settings: vs murine 3G4
[9] = Administration to atherosclerotic rabbits; settings: rabbit, in vivo
[10] = tested on: mCMV RVG102; assay: Survival of mCMV-infected mice; format: in vivo, mouse; settings: past 90 days post infection; untreated 25%
[11] = Phospholipid specificity ELISA; format: binding
Experimental: The specificity of the antibodies was determined by ELISA using plates coated with the following phospholipids: PS, phosphatidylserine; PE, phosphatidylethanolamine; PI, phosphatidylinositol; PA, phosphatidic acid; PG, phosphatidylglycerol; PC, phosphatidylcholine; CL, cardiolipin; and SM, sphingomyelin.

[12] = tested on: syngeneic prostatic tumors; assay: Bavituximab in rats with syngeneic prostatic tumors; settings: rat, in vivo
[13] = Monkey safety studies; format: in vivo, cynomolgus monkeys; settings: repeat dosing
Experimental: This is 100 times the calculated therapeutic dose ([…]).

[14] = Serum dependence of binding to PS
Experimental: The serum dependence or independence of the antibodies is also set forth in Table 2 (see also, Example XXX).
The 1B9, 2G7 and 7C5 antibodies behave essentially the same. These antibodies recognize only PS and require serum or serum proteins for binding to PS. The binding of 1B9, 2G7 and 7C5 to various phospholipids in the present example was assayed only in the presence of 10% bovine serum, whereas binding of the other antibodies was tested either in the absence or in the presence of serum.

[15] = target: T1, human β2GPI (Homo sapiens, UniProt P02749); assay: Anti-hβ2GPI ELISA; format: binding
T1 construct: Human β2GPI (hβ2GP1) was purified from human plasma essentially as described previously; from tissue; host or cells: pooled human plasma
T1 sequence (P02749 20-345): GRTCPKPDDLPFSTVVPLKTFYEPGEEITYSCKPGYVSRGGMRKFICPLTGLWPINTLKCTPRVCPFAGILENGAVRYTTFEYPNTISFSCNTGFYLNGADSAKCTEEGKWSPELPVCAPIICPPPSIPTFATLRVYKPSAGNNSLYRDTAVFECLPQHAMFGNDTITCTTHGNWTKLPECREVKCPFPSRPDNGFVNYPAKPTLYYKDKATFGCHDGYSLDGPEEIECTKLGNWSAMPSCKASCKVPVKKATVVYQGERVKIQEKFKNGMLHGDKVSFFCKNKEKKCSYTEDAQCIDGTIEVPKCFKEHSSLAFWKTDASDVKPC
Experimental: The assay was performed as described above with the following modifications. hβ2GPI, nicked hβ2GPI, or recombinant hβ2GPI peptides were coated on 96-well Immunlon 2HB microtiter plates overnight at a concentration of 10 μg/ml. Plates were then blocked in 1% OVA for 1 hr. at room temperature. […] Plates were incubated for 1 hr. at 37° C. and antibody binding was detected. All ELISA studies were performed at least three times.

[16] = tested on: U937 cells infected with Vaccinia virus; format: cell-based; settings: m.o.i of 2, 2 days
[17] = tested on: MDA-MB-435 breast tumors; assay: 3G4 and chimeric 3G4 tumor treatment; format: in vivo, mouse; settings: MD-MBA-435s; IP 800 μg day 15, 200 μg every two to three days, 400 μg day 35
Experimental: Tumors were also established using MD-MBA-435s cells and treated as described above. […] The treatment of large L540 tumors, MDA-MB-231 and MD-MBA-435s tumor cells for 60 days was also effective. The antibodies caused tumor vascular injury, thrombosis and necrosis and retarded tumor growth, with no evidence of toxicity.
MD-MBA-435s lucerifase cells were obtained from Dr. Angels Sierra Jimenez, Barcelona, Spain and were grown in 10% DMEM. Mice were injected with tumor cells as described as above, and at 2 weeks post injection, the tumors were measured and the volume recorded. […] Treatment was initiated by IP injection (800 μg) at day 15 and continued with injections of 200 μg every two to three days until the final injection of 400 μg at day 35. Tumor volumes and mouse body weights were measured on injection days. Mice were sacrificed and perfused with saline for 12 minutes. The organs and tumor were removed, snap-frozen in liquid nitrogen and the tumor sectioned for immunohistochemistical analysis.
Groups of 8-10 female SCID mice were injected subcutaneously with 2×10^7 L540 cells or orthotopically with 1×10^7 MDA-MB-435 or MDA-MB-231 cells. BALB/c mice were injected subcutaneously with 1×10^6 Meth A cells. […] Animals were monitored three times a week for tumor size and body weight. […]

[18] = tested on: WiDr (colon carcinoma); assay: WiDr colon carcinoma model; format: in vivo, mouse; settings: 100 μg 3×/week from day 5; preliminary study
Experimental: Treatment was started on day 5, when the tumors were small (10 mice per group). 100 μg of each antibody was injected 3×/week and tumor growth monitored.

In the case of OO [Hydrogen peroxide, hydrogen peroxide], the “cells that bound biotinylated annexin V” value [1] is reported as “More than 70%”, the cell viability ([2]; H2O2 at high concentrations) is reported as 50-60% and the cell viability ([2]; low levels of H2O2, identical to untreated control) is reported as 95%.

With CC(=O)O[C@@]12CO[C@@H]1C[C@H](O)[C@@]1(C)C(=O)[C@H](O)C3=C(C)[C@@H](OC(=O)[C@H](O)[C@@H](NC(=O)OC(C)(C)C)c4ccccc4)C[C@@](O)([C@@H](OC(=O)c4ccccc4)[C@H]21)C3(C)C [docetaxel] the “3G4 binding vs untreated cells” value [3] was “significant increase in 3G4 binding”, the “externalization of anionic phospholipids on HUVEC” value ([4]; 20 pM) was “caused anionic phospholipids to be externalized without inducing apoptosis” and the “3G4 binding vs untreated cells” value ([4]; 10 nM, 24 hrs) was “significant increase in 3G4 binding”. For the same compound, the “tumor vessels that expose anionic phospholipids” value [5] was 60%.

With Nc1ccn([C@@H]2O[C@H](CO)[C@@H](O)C2(F)F)c(=O)n1 [gemcitabine, reference compound] the “anti-tumor effect (tumor weight)” value [6] was “significant anti-tumor effect”.

For “ch3G4: Human-mouse chimeric (human IgG1) version of 3G4, termed bavituximab”, the “binding to LPC-treated ABAE cells” value ([7]; 10% MS plus purified hβ2GPI) was “widespread binding”, the “binding to LPC-treated ABAE cells” value ([7]; 10% MS, no hβ2GPI) was “no antibody binding was detected” and the “binding to phospholipid-coated ELISA plates” value [8] was “bound at least as did well as the murine 3G4”. For the same compound, the “safety in atherosclerotic rabbits” value ([9]; listed as chimeric version of the 3G4 antibody) was “did not exacerbate aortic atherosclerotic lesions”, the “safety in atherosclerotic rabbits” value ([9]; listed as humanized 3G4 antibody) was “shown to be safe” and the survival [10] was 80%. For the same compound, the “Relative Strength of Reactivity on ELISA” value [11] was “PS = PA = PI = PG = CL >> PE”, the “tumor homing of radiolabeled antibody” value [12] was “shown to home to syngeneic prostatic tumors in rats” and the tumor perfusion [12] was “Reduced tumor perfusion”. For the same compound, the “No adverse effect level (NOAEL)” value [13] was “approximately 10 mg/kg/week”, the “Serum cofactor?” value [14] was “Yes” and the “binding to nicked hβ2GPI coated on microtiter plates” value [15] was “binds nicked hβ2GPI as well as hβ2GPI”. For the same compound, the “FACS shift vs uninfected cells” value [16] was “significant shift”, the “tumor growth vs control” value [17] was “effectively retarded tumor growth” and the tumor growth [18] was “slowed tumor growth to essentially the same degree”.
